Values after ≈ are worked out from the molar mass of the structure shown.
What was measured:
Type in all cases: cell-based
[1] = system: Clostridium perfringens PB6K; assay: microbe, parasite or virus in culture; conditions: 18 h
[2] = system: Staphylococcus aureus TST-75; assay: Antibacterial activity against clinically isolated S. aureus (agar dilution MIC, Table 2); conditions: Staphylococcus aureus, TST75; strain TST-75; agar dilution; Mueller Hinton medium; 10^6 CFU/ml; read-out: MIC
Method: (§1) DMPPC: Methicillin, KM: Kanamycin, GM: Gentamycin, EM: Erythromycin (Note
(§2) Determined by the agar dilution method. Medium: Mueller Hinton medium
(§3) (Difco, USA) Inoculum Size: 10^6 CFU/ml, 37° C.

[3] = system: Staphylococcus aureus N129; assay: as above; conditions: Staphylococcus aureus; strain N129; agar dilution; Mueller Hinton medium; 10^6 CFU/ml; read-out: MIC
Method: as §1, §2, §3

[4] = system: Staphylococcus aureus N267; assay: as above; conditions: Staphylococcus aureus; strain N267; agar dilution; Mueller Hinton medium; 10^6 CFU/ml; read-out: MIC
Method: as §1, §2, §3

[5] = system: Staphylococcus aureus N83; assay: as above; conditions: Staphylococcus aureus; strain N83; agar dilution; Mueller Hinton medium; 10^6 CFU/ml; read-out: MIC
Method: as §1, §2, §3

[6] = system: Staphylococcus aureus N62; assay: as above; conditions: Staphylococcus aureus; strain N62; agar dilution; Mueller Hinton medium; 10^6 CFU/ml; read-out: MIC
Method: as §1, §2, §3

Staphylococcus aureus C3 = assay: as above; conditions: Staphylococcus aureus; strain C3; agar dilution; Mueller Hinton medium; 10^6 CFU/ml; read-out: MIC
Method: as §1, §2, §3

[7] = system: Staphylococcus aureus N247-21; assay: as above; conditions: Staphylococcus aureus, N24721; strain N247-21; agar dilution; Mueller Hinton medium; 10^6 CFU/ml; read-out: MIC
Method: as §1, §2, §3

[8] = system: Staphylococcus aureus N262; assay: as above; conditions: Staphylococcus aureus; strain N262; agar dilution; Mueller Hinton medium; 10^6 CFU/ml; read-out: MIC
Method: as §1, §2, §3

[9] = system: Staphylococcus aureus N176-6; assay: as above; conditions: Staphylococcus aureus, N1766; strain N176-6; agar dilution; Mueller Hinton medium; 10^6 CFU/ml; read-out: MIC
Method: as §1, §2, §3

[10] = system: Staphylococcus aureus N247-16; assay: as above; conditions: Staphylococcus aureus, N24716; strain N247-16; agar dilution; Mueller Hinton medium; 10^6 CFU/ml; read-out: MIC
Method: as §1, §2, §3

[11] = system: Staphylococcus aureus N91; assay: as above; conditions: Staphylococcus aureus; strain N91; agar dilution; Mueller Hinton medium; 10^6 CFU/ml; read-out: MIC
Method: as §1, §2, §3

Staphylococcus aureus C7 = assay: as above; conditions: Staphylococcus aureus; strain C7; agar dilution; Mueller Hinton medium; 10^6 CFU/ml; read-out: MIC
Method: as §1, §2, §3

[12] = system: Staphylococcus aureus C10; assay: as above; conditions: Staphylococcus aureus; strain C10; agar dilution; Mueller Hinton medium; 10^6 CFU/ml; read-out: MIC
Method: as §1, §2, §3

Staphylococcus aureus C4 = assay: as above; conditions: Staphylococcus aureus, C4
Method: as §1, §2, §3

[13] = system: Staphylococcus aureus N247; assay: as above; conditions: Staphylococcus aureus; strain N247; agar dilution; Mueller Hinton medium; 10^6 CFU/ml; read-out: MIC
Method: as §1, §2, §3

[14] = system: Staphylococcus aureus N237; assay: as above; conditions: Staphylococcus aureus; strain N237; agar dilution; Mueller Hinton medium; 10^6 CFU/ml; read-out: MIC
Method: as §1, §2, §3

[15] = system: Staphylococcus aureus N326; assay: as above; conditions: Staphylococcus aureus; strain N326; agar dilution; Mueller Hinton medium; 10^6 CFU/ml; read-out: MIC
Method: as §1, §2, §3

[16] = system: Staphylococcus aureus N28; assay: as above; conditions: Staphylococcus aureus; strain N28; agar dilution; Mueller Hinton medium; 10^6 CFU/ml; read-out: MIC
Method: as §1, §2, §3

[17] = system: Staphylococcus aureus FDA 209P; assay: as above; conditions: Staphylococcus aureus, FDA209P; strain FDA 209P; agar dilution; Mueller Hinton medium; 10^6 CFU/ml; read-out: MIC
Method: as §1, §2, §3

[18] = system: Staphylococcus aureus N51; assay: as above; conditions: Staphylococcus aureus; strain N51; agar dilution; Mueller Hinton medium; 10^6 CFU/ml; read-out: MIC
Method: as §1, §2, §3

[19] = system: Staphylococcus aureus N64; assay: as above; conditions: Staphylococcus aureus; strain N64; agar dilution; Mueller Hinton medium; 10^6 CFU/ml; read-out: MIC
Method: as §1, §2, §3

Staphylococcus aureus N8 = assay: as above; conditions: Staphylococcus aureus; strain N8; agar dilution; Mueller Hinton medium; 10^6 CFU/ml; read-out: MIC
Method: as §1, §2, §3

[20] = system: Staphylococcus aureus N176-3; assay: as above; conditions: Staphylococcus aureus, N1763; strain N176-3; agar dilution; Mueller Hinton medium; 10^6 CFU/ml; read-out: MIC
Method: as §1, §2, §3

[21] = system: Staphylococcus aureus TS-65; assay: as above; conditions: Staphylococcus aureus, TS65; strain TS-65; agar dilution; Mueller Hinton medium; 10^6 CFU/ml; read-out: MIC
Method: as §1, §2, §3

[22] = system: Staphylococcus aureus N235; assay: as above; conditions: Staphylococcus aureus; strain N235; agar dilution; Mueller Hinton medium; 10^6 CFU/ml; read-out: MIC
Method: as §1, §2, §3

[23] = system: Staphylococcus aureus N176; assay: as above; conditions: Staphylococcus aureus; strain N176; agar dilution; Mueller Hinton medium; 10^6 CFU/ml; read-out: MIC
Method: as §1, §2, §3

[24] = system: Staphylococcus aureus N121; assay: as above; conditions: Staphylococcus aureus; strain N121; agar dilution; Mueller Hinton medium; 10^6 CFU/ml; read-out: MIC
Method: as §1, §2, §3

[25] = system: Bacteroides thermophilis PNA-1-24; assay: MIC against anaerobic bacteria (Table 3); conditions: PNA124, 10^6 CFU/ml, GAM medium, Gas Pack, 37° C., 18 hours

SMILES: CN(C(=O)C[C@@H](N)CCCNC(=N)N)[C@H]1CNC(NC(N)=O)=NC1=O [TAN-1057A]
- MIC [1]: 12.5 µg/mL (≈ 35.2 µM)
- MIC [2]: 0.78 µg/mL (≈ 2.19 µM)
- MIC [3]: 0.39 µg/mL (≈ 1.1 µM)
- MIC [4]: ≤ 0.2 µg/mL
- MIC [5]: 0.39 µg/mL (≈ 1.1 µM)
- MIC [6]: 0.78 µg/mL (≈ 2.19 µM)
- MIC (Staphylococcus aureus C3): 0.78 µg/mL (≈ 2.19 µM)
- MIC [7]: 0.78 µg/mL (≈ 2.19 µM)
- MIC [8]: 0.78 µg/mL (≈ 2.19 µM)
- MIC [9]: 0.78 µg/mL (≈ 2.19 µM)
- MIC [10]: 0.78 µg/mL (≈ 2.19 µM)
- MIC [11]: 0.78 µg/mL (≈ 2.19 µM)
- MIC (Staphylococcus aureus C7): 0.78 µg/mL (≈ 2.19 µM)
- MIC [12]: 0.78 µg/mL (≈ 2.19 µM)
- MIC (Staphylococcus aureus C4): 6.25 µg/mL (≈ 17.6 µM)
- MIC [13]: 1.56 µg/mL (≈ 4.39 µM)
- MIC [14]: 0.78 µg/mL (≈ 2.19 µM)
- MIC [15]: 0.78 µg/mL (≈ 2.19 µM)
- MIC [16]: 0.78 µg/mL (≈ 2.19 µM)
- MIC [17]: 0.39 µg/mL (≈ 1.1 µM)
- MIC [18]: 0.78 µg/mL (≈ 2.19 µM)
- MIC [19]: 0.78 µg/mL (≈ 2.19 µM)
- MIC (Staphylococcus aureus N8): 0.78 µg/mL (≈ 2.19 µM)
- MIC [20]: 1.56 µg/mL (≈ 4.39 µM)
- MIC [21]: 0.78 µg/mL (≈ 2.19 µM)
- MIC [22]: 1.56 µg/mL (≈ 4.39 µM)
- MIC [23]: 1.56 µg/mL (≈ 4.39 µM)
- MIC [24]: 0.78 µg/mL (≈ 2.19 µM)
- MIC [25]: 0.78 µg/mL (≈ 2.19 µM)

Reference: patent US4971965A, “Antibiotics TAN-1057” (Takeda Chemical Industries, Ltd., priority 1988, dated 1990)
